Here are results for four compounds from paper PMC5915530, “Immunosilencing peptides by stereochemical inversion and sequence reversal: retro-D-peptides” (Scientific Reports, 2018).

The conditions of series [1]: demonstrated earlier by the authors' laboratory; ref 21 (printed for retro-D-THR); cited from earlier work. The text has this:
(§1) We have applied this previously described strategy to a family of peptide BBB shuttles (H2N-HAIYPRH-CONH2 and H2N-THRPPMWSPVWP-CONH2[14], namely HAI and THR peptides, respectively). BBB shuttles are molecular entities of diverse origin, e.g. synthetic or natural peptides, which have the capacity to cross the blood-brain barrier (BBB) and, when covalently conjugated to drugs unable to cross the BBB unaided, can deliver them into the central nervous system (CNS)[15]. Those that cross through receptor-mediated transcytosis are also included in the term ‘molecular Trojan horses’[16],[17]. Although ...

Series [2] deals with BALB/c mice. Nature of the series: Mouse immunization with unconjugated peptides, titration of peptide-specific antibodies in serum by ELISA. Particulars: seven i.p. doses of 50 μg, BALB/c mice (four per group), CFA first dose, IFA boosters, PBS last, ELISA on peptide-BSA conjugate, serum diluted from 1:100, anti-Mouse IgG-HRP, read at 450 nm, Fig. 3a, b. Type of series: in vivo. The text has this: To date, several studies have used D-peptides as tools for vaccine development. In these cases the peptides have been conjugated to large supramolecular entities, e.g. KLH and small unilamelar liposomes containing monophosphoryl lipid A[23],[24]. Nevertheless, the use of retro-D-peptides as therapeutics was controversial twenty years ago[25],[26]. Thus, to shed light on the immunogenicity of D-peptides and add further value to these compounds, we evaluated the immunological responses activated by retro-D-THR and retro-D-HAI peptides and compared them to that of their parent peptides. For this purpose, peptides (not conjugated) were i.p. administered to mice, and antibody titration was used as parameter to evaluate immunological (humoral) response by ELISA.
Four groups of four BALB/c mice were treated with either one of the parent peptides or their retro-D-version. Each mouse received seven doses i.p. of 50 μg of peptide. Complete Freund’s[49] adjuvant (CFA) was administered in the first dose, incomplete Freund’s adjuvant (IFA) in the subsequent five booster injections, and PBS in the last one. Bleedings for the titration of specific antibody production were performed before the first dose (time zero bleeding) and five days after the fourth and last dose (Supplementary Scheme 1). The peptide-specific humoral response was quantified by ELISA. MaxiSorp plates (Nunc) were treated with 0.1 mL of the corresponding peptide-BSA conjugate (1 μg) per well in carbonate buffer, overnight at 4 °C (Supplementary Fig. 6b). Afterwards, plates were blocked with 0.2 mL PBS-Tween 20 (T20) containing 2% of milk powder for 2 h a 37 °C. Each sample serum was consecutively diluted 1/2 (starting by dilution 1:100) in PBS-T20 and incubated for 1 h at 37 °C. Incubation with a secondary antibody (dil. 1/5,000) anti-Mouse IgG-HRP (ref. R1253HRP; batch 26922; Acris) was left for 1 h at 37 °C. Washes (x3) with PBST (300 μl/well) were applied after each antibody incubation. Finally, TMB (100 μl/well) was added and left for 30 min, when the stop solution (100 μl, HClaq 1 N) blocked the colorimetric reaction. Plates were read at 450 nm (Fig. 3a–c). […]
Data were processed using GraphPad Prism 6.0 software. […] Data from human serum stability assays were analyzed as non-linear one-phase exponential decay model for L-peptides and as standard linear model with zero slope for D-peptides. Deviations from a value of 100 at each dilution point were assessed using a linear model, in which group and interaction were included as covariates. In immune response studies, each dilution point (in ELISAs) was analyzed by a Mann-Whitney test to assess differences between S0 with S1 or S2. […]
In general terms: In an ELISA, binding on a coated surface is turned into a signal by an enzyme label.

The nature of series [3]: Protease resistance. Particulars: as stated in abstract. Type of series: in vitro ADME. Here is the method:
Data were processed using GraphPad Prism 6.0 software. All results are presented as mean + SEM. Data from human serum stability assays were analyzed as non-linear one-phase exponential decay model for L-peptides and as standard linear model with zero slope for D-peptides. Deviations from a value of 100 at each dilution point were assessed using a linear model, in which group and interaction were included as covariates. In immune response studies, each dilution point (in ELISAs) was analyzed by a Mann-Whitney test to assess differences between S0 with S1 or S2. In both cases, 5% was set as a threshold for statistical significance.

Series [4] deals with blood-brain barrier (BBB). Particulars: parent versions, in several studies; ref not given; cited from earlier work.
Description: as §1

Non-standard residues stand in square brackets, D forms with d. Residues, ends and D or L forms follow the SMILES beside them.

Take `CC[C@@H](C)[C@@H](NC(=O)[C@@H](Cc1ccc(O)cc1)NC(=O)[C@H]1CCCN1C(=O)[C@@H](CCCNC(=N)N)NC(=O)[C@H](N)Cc1c[nH]cn1)C(=O)N[C@H](C)C(=O)N[C@H](Cc1c[nH]cn1)C(N)=O` [retro-D-HAI]: in series [1], the protease-resistance result is given as “protease-resistance”. Moreover, the figures for the “immunogenicity (peptide-specific humoral response, antibody titration)” value in series [2] and in series [2] (listed as H2N-hrpyiah-CONH2) were “not immunogenic per se” and “much less immunogenic than the parent peptide”, respectively. Also, in series [3], the protease resistance entry was “protease-resistant”.
Regarding `CSCC[C@@H](NC(=O)[C@@H](Cc1c[nH]c2ccccc12)NC(=O)[C@@H](CO)NC(=O)[C@H]1CCCN1C(=O)[C@H](NC(=O)[C@@H](Cc1c[nH]c2ccccc12)NC(=O)[C@H]1CCCN1)C(C)C)C(=O)N1CCC[C@@H]1C(=O)N1CCC[C@@H]1C(=O)N[C@H](CCCNC(=N)N)C(=O)N[C@H](Cc1c[nH]cn1)C(=O)N[C@@H](C(N)=O)[C@H](C)O` [retro-D-THR] (H-[dP][dW][dV][dP][dS][dW][dM][dP][dP][dR][dH][dT]-NH2), the protease-resistance entry in series [1] is recorded as “protease-resistance”. Besides, the “immunogenicity (peptide-specific humoral response, antibody titration)” value in series [2] is on record as “not immunogenic per se”; in series [2] (listed as H2N-pwvpswmpprht-CONH2), “much less immunogenic than the parent peptide”. Moreover, in series [3], the protease resistance result was “protease-resistant”.
Take “H2N-HAIYPRH-CONH2 [parent L-peptide BBB shuttle, H2N-HAIYPRH-CONH2]”: the BBB permeability entry in series [4] is reported as “efficient BBB permeability”.
Take “H2N-THRPPMWSPVWP-CONH2 (H-THRPPMWSPVWP-NH2) [parent L-peptide BBB shuttle, H2N-…-CONH2]”: the BBB permeability result in series [4] is “efficient BBB permeability”.
